By Emax is commonly meant the maximal effect, on the per cent scale that the assay sets.

This experiment deals with T1, human δ receptor (Homo sapiens, UniProt P41143).
T1 construct: expressed in transfected cells
T1 sequence (P41143 whole entry): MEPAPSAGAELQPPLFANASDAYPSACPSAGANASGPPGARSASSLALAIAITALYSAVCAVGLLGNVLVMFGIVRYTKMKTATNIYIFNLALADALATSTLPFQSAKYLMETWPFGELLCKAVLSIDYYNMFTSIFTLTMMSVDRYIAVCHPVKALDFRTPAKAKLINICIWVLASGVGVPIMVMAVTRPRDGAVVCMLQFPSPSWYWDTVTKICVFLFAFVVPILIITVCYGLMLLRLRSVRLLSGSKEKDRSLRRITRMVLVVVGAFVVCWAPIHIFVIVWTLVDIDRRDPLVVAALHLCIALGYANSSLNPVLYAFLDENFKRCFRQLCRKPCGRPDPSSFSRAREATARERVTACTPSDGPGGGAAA
Kind of experiment: GTP[γ]35S binding functional assay, human δ receptor. Type of experiment: biochemical. The following applies: Emax in relation to the standard δ agonist SNC80. How it is done:
The agonist activity of the compounds is measured by determining the degree to which the compounds receptor complex activates the binding of GTP to G-proteins to which the receptors are coupled. In the GTP binding assay, GTP[γ]^35S is combined with test compounds and membranes from HEK-293S cells expressing the cloned human opioid receptors or from homogenised rat and mouse brain. Agonists stimulate GTP[γ]^35S binding in these membranes. The EC50 and Emax values of compounds are determined from dose-response curves. Right shifts of the dose response curve by the delta antagonist naltrindole are performed to verify that agonist activity is mediated through delta receptors. The Emax values were determined in relation to the standard δ agonist SNC80, i.e., higher than 100% is a compound that have better efficacy than SNC80.
Background: GTPγS is a poorly hydrolysed GTP analogue; its binding reports G protein activation.
`CCN(CC)C(=O)c1ccc(C(=C2CCNCC2)c2cccc(C(=O)Nc3ccccc3)c2)cc1` [Compound 1, 4-[[3-(anilinocarbonyl)phenyl](piperidin-4-ylidene)methyl]-N,N-diethylbenzamide] gave an Emax of 69 to 105%.

In turn, `CCN(CC)C(=O)c1ccc(C(=C2CCNCC2)c2cccc(C(=O)NCc3ccccc3)c2)cc1` [Compound 2, 4-[{3-[(benzylamino)carbonyl]phenyl}(piperidin-4-ylidene)methyl]-N,N-diethylbenzamide] registered an Emax of 69 to 105%. The compound `CCN(CC)C(=O)c1ccc(C(=C2CCNCC2)c2cccc(C(=O)NCCc3ccccc3)c2)cc1` [Compound 3, 4-[(3-{[(2-phenylethyl)amino]carbonyl}phenyl)(piperidin-4-ylidene)methyl]-N,N-diethylbenzamide] registered an Emax of 69 to 105%. Consider `CCN(CC)C(=O)c1ccc(C(=C2CCNCC2)c2cccc(C(=O)NC3CCCC3)c2)cc1` [Compound 4, 4-[{3-[(cyclopentlamino)carbonyl]phenyl}(piperidin-4-ylidene)methyl]-N,N-diethylbenzamide], for which the Emax was 69 to 105%.

For `CCN(CC)C(=O)c1ccc(C(=C2CCNCC2)c2cccc(C(=O)NC3CCCCC3)c2)cc1` [Compound 5], the Emax lay within 69 to 105%. Compound `CCN(CC)C(=O)c1ccc(C(=C2CCNCC2)c2cccc(C(=O)NCC3CCCCC3)c2)cc1` [Compound 6] returned an Emax of 69 to 105%. To `CCN(CC)C(=O)c1ccc(C(=C2CCNCC2)c2cccc(C(=O)NCc3ccccc3Cl)c2)cc1` [Compound 7, 4-[(3-{[(2-chlorobenzyl)amino]carbonyl}phenyl)(piperidin-4-ylidene)methyl]-N,N-diethylbenzamide] belongs 69 to 105%. As to `CCN(CC)C(=O)c1ccc(C(=C2CCNCC2)c2cccc(C(=O)NCc3ccccc3F)c2)cc1` [Compound 8, 4-[(3-{[(2-fluorobenzyl)amino]carbonyl}phenyl)(piperidin-4-ylidene)methyl]-N,N-diethylbenzamide], the Emax is 69 to 105%. On to `CCN(CC)C(=O)c1ccc(C(=C2CCNCC2)c2cccc(C(=O)N[C@H](C)c3ccc(C)cc3)c2)cc1` [Compound 9, 4-[[3-({[(1R)1-(4-methylphenyl)ethyl]amino}carbonyl)phenyl](piperidin-4-ylidene)methyl]-N,N-diethylbenzamide], for which the Emax was in the range of 69 to 105%. With `CCN(CC)C(=O)c1ccc(C(=C2CCNCC2)c2cccc(C(=O)Nc3nc(C)cs3)c2)cc1` [Compound 10, 4-[(3-{[(4-methyl-1,3-thiazol-2-yl)amino]carbonyl}phenyl)(piperidin-4-ylidene)methyl]-N,N-diethylbenzamide] the figure was 69 to 105%; with `CCN(CC)C(=O)c1ccc(C(=C2CCNCC2)c2cccc(C(=O)Nc3ccc(C)nc3C)c2)cc1` [Compound 11], 69 to 105%; with `CCN(CC)C(=O)c1ccc(C(=C2CCNCC2)c2cccc(C(=O)NCC(C)C)c2)cc1` [Compound 12, 4-[{3-[(isobutylamino)carbonyl]phenyl}(piperidin-4-ylidene)methyl]-N,N-diethylbenzamide], 69 to 105%. `CCC(CC)NC(=O)c1cccc(C(=C2CCNCC2)c2ccc(C(=O)N(CC)CC)cc2)c1` [Compound 13, 4-[(3{[(1-ethylpropyl)amino]carbonyl}phenyl)(piperidin-4-ylidene)methyl]-N,N-diethylbenzamide]: the Emax lay in the range of 69 to 105%. For `CCN(CC)C(=O)c1ccc(C(=C2CCNCC2)c2cccc(C(=O)N(C)CCc3ccccc3)c2)cc1` [Compound 14, 4-[(3-{[methyl(2-phenylethyl)amino]carbonyl}phenyl)(piperidin-4-ylidene)methyl]-N,N-diethylbenzamide], the Emax was in the range of 69 to 105%.

As to `CCN(CC)C(=O)c1ccc(C(=C2CCNCC2)c2cccc(C(=O)N3CCCCC3)c2)cc1` [Compound 15], the Emax is 69 to 105%. Regarding `CCN(CC)C(=O)c1ccc(C(=C2CCNCC2)c2cccc(C(=O)N3CCCC3)c2)cc1` [Compound 16, N,N-diethyl-4-{piperidin-4-ylidene[3-(pyrrolidin-1-ylcarbonyl)phenyl]methyl}benzamide], the Emax lay within 69 to 105%.

(Values after patent publication US20060079555A1, “Diarylmethylidene piperidine derivatives, preparations thereof and uses thereof” (AstraZeneca AB, priority 2003, published 2006).)
